Reference: article PMC5078989, “Targeted inhibition of the COP9 signalosome for treatment of cancer” (Nature Communications, 2016)

Columns and labels:
SU-DHL-1 xenografts = experiment: SU-DHL-1 xenograft experiment in SCID-bg mice; format: in vivo; details: 14 days; for T/C value (tumour volume of treated versus control): last day of treatment
Experimental: For the in vivo study, subcutaneous SU-DHL-1 xenografts were grown in SCID-bg mice and CSN5i-3 was administered orally at doses of 50 mg kg^−1 BID and 100 mg kg^−1 QD over a period of 14 days. […] Tumours were excised at the end of the study and the effect of compound treatment assessed on the pharmacodynamics markers, neddylated Cul1 and Skp2. […] All animal experiments were approved by the Kantonales Veterinäramt Basel-Stadt and were conducted in accordance with the Eidgenössisches Tierschutzgesetz and the Eidgenössische Tierschutzverordnung. SU-DHL-1 cells (1 × 10^7; DSMZ) were implanted subcutaneously into SCID-bg female 7–9-week-old mice (Taconic) and developing tumours were propagated once before subcutaneous transplantation for efficacy studies. Treatment was initiated when tumours reached 150–200 mm^3 volume. […] Randomization was conducted by using an internal computer software (Indigo). CSN5i-3 was formulated in 100 mM citrate buffer pH 3, PEG300, Kolliphor HS15, 1 N HCl (56:30:10:4%w/w). Tumour response is reported as percentage change in tumour volume at the last day of treatment relative to start of treatment. […] At day 10 of treatment blood, samples were taken and concentrations of CSN5i-3 were determined at indicated time points post dose using ultra-high-pressure liquid chromatography/tandem MS. At the end of treatment, tumours were excised and snap frozen in liquid nitrogen. Frozen tumours were pulverized using CryoPrep (Covaris Inc.) and protein lysates were prepared from tumour powder for immunoblot analysis.

CYP3A4 = CYP3A4 (Homo sapiens, UniProt P08684); experiment: CYP3A4 inhibition; format: in vitro ADME
Description: Table 2 CYP3A4 inhibition and key pharmacokinetic parameters in mice of CSN5 inhibitors. | column: CSN5i-2; CSN5i-3

THP-1 cells = experiment: Cell viability assay (CellTiter-Glo), THP-1; format: cell-based, human; details: THP-1, 72 h; cytotoxic
Experimental: Cells were maintained in a humidified incubator at 37 °C and 5% CO2. […] All cells were negatively tested for mycoplasma contamination either by the vendor or in house. […] If not stated otherwise, cells were harvested after incubation for 16 h and subjected to SDS-PAGE and western blotting. The RNA interference experiment was performed with CSN5 stealth siRNA (#HSS116986) and stealth negative control siRNA (#12935-400) (Invitrogen), which were transfected at 10 nM into HCT116 cells using […] (Qiagen) according to the manufacturer's protocols. Seventy-two hours after transfection, cells were harvested and subjected to SDS-PAGE and western blotting (see Supplementary Fig. 7 for all western blottings performed). A standardized CellTiter-Glo Assay (Promega #G7570) based on the quantification of ATP was applied according to the manufacturer's protocol to measure the amount of viable cells in culture. In brief, cells were seeded into 384-well plates at optimal density for each cell line. After 4 h, compounds were added at different concentrations in growth medium and incubated for another 72 h in a humidifying chamber at 37 °C and 5% CO2. Eventually, equal amounts of CellTiter-Glo reagent were added directly to the cells, incubated for 15 min and luminescence was recorded using PHERAstar plate reader (BMG LABTECH GmbH).

CSN5 = biological target: T1, CSN5 (Homo sapiens, UniProt Q92905); experiment: CSN5 activity assay (CSN deneddylation, fluorescence polarization); format: biochemical; details: JAMM domain protease; means±s.d.
T1 construct: made in house; host or cells: Sf21 insect cells, co-infection of separate baculoviruses
Experimental: Unlike the majority of proteases, it is not active as an individual subunit or as an isolated catalytic domain. […] For the identification of CSN inhibitors, we therefore conducted a high-throughput screening campaign using a biochemical assay with recombinant CSN and a fluorescence-labelled and NEDD8-modified CRL substrate[30][40] (PT22-NEDD8-SCF^Skp2; Supplementary Table 1).
The potency of CSN5 inhibitors was determined in a CSN activity assay using changes in fluorescence polarization as the readout. Reactions were carried out at room temperature in 384-well plates. […] The effect of compound on enzymatic activity was determined from the linear part of the progression curves by an end-point measurement of the fluorescence polarization at 590 nm after excitation at 540 nm using a PHERAstar plate reader (BMG LABTECH GmbH). IC50 values were calculated from the plot of percentage of inhibition versus inhibitor concentration using the non-linear regression analysis software Origin 7.5SR6 (OriginLab Corp.).

[1] = 50 mg kg^−1 BID and 100 mg kg^−1 QD oral

CYP3A4, sequence (P08684 whole entry, species assumed): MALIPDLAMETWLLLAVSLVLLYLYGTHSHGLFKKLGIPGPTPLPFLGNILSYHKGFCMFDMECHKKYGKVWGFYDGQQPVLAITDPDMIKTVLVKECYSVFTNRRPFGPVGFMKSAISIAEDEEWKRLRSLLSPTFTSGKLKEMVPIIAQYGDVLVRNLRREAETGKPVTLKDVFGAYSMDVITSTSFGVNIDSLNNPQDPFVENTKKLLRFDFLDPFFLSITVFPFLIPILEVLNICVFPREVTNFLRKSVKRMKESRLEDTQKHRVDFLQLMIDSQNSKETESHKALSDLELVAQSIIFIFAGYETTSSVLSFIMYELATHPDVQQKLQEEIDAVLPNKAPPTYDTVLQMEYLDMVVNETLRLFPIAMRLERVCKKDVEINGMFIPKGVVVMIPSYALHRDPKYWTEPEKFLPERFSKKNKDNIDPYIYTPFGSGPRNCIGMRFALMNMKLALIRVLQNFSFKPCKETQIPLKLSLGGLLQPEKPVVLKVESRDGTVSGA

IC50 (CSN5) [nM]	SMILES	tolerability based on body weight (SU-DHL-1 xenografts; [1])	tumour growth outcome (SU-DHL-1 xenografts; [1])	T/C value (tumour volume of treated versus control) (SU-DHL-1 xenografts; 50 mg kg^−1 BID oral) [%]	T/C value (tumour volume of treated versus control) (SU-DHL-1 xenografts; 100 mg kg^−1 QD oral) [%]	IC50 (CYP3A4) [nM]	AMAX (THP-1 cells) [%]
–	CC(C)n1nc(C(F)F)cc1C(=O)Nc1ccc([C@H]2[C@@H](O)CCCc3cncn32)c(-c2ccccc2)c1 [CSN5i-3, 3-(Difluoromethyl)-N-(6-((5S,6S)-6-hydroxy-6,7,8,9-tetrahydro-5H-imidazo[1,5-a]azepin-5-yl)-[1,1′-biphenyl]-3-yl)-1-isopropyl-1H-pyrazole-5-carboxamide]	well tolerated	Tumour stasis	22	25	6800 ± 1800	≤ −95
2100 ± 1800	COCc1ccccc1NCc1ccc([C@@H]2[C@H](O)CCCc3cncn32)c(-c2ccccc2Cl)c1 [CSN5i-2e, (5R,6R)-5-(2′-chloro-5-(((2-(methoxymethyl)phenyl)amino)methyl)-[1,1′-biphenyl]-2-yl)-6,7,8,9-tetrahydro-5H-imidazo[1,5-a]azepin-6-ol]	–	–	–	–	–	–
2 ± 1	COCc1ccccc1NCc1ccc([C@H]2[C@@H](O)CCCc3cncn32)c(-c2ccccc2Cl)c1 [CSN5i-2, (5S,6S)-5-(2′-chloro-5-(((2-(methoxymethyl)phenyl)amino)methyl)-[1,1′-biphenyl]-2-yl)-6,7,8,9-tetrahydro-5H-imidazo[1,5-a]azepin-6-ol]	–	–	–	–	< 500	–
